Laboratory results published in ChEMBL document CHEMBL1131999, “Design, synthesis and testing of amino-bicycloaryl based orally bioavailable thrombin inhibitors” (Bioorg Med Chem Lett, 1999).

Legend:
Serine protease 1 = Serine protease 1 (Homo sapiens, UniProt P07477); test: In vitro trypsin inhibition
Prothrombin = Prothrombin (Homo sapiens, UniProt P00734); test: In vitro thrombin inhibition
Caco-2 = conditions: Homo sapiens
Description: The compound was evaluated in vitro for the Caco-2 cell permeability.

[1] = Oral bioavailability in dog; assay type: ADME, organism-based, Canis lupus familiaris; conditions: in vivo

Sequence of Serine protease 1 (P07477 whole entry): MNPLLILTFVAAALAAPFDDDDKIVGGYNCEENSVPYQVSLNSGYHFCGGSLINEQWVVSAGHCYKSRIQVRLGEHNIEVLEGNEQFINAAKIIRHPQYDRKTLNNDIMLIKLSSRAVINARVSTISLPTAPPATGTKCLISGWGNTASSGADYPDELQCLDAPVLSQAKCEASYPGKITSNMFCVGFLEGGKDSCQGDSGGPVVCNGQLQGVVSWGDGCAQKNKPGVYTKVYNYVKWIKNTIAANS

IC50 (Serine protease 1) [µM] | IC50 (Prothrombin) [nM] | bioavailability [1] [%] | SMILES | Papp (Caco-2) [nm/s]
1.9 | 640 |  | CC1CCN(C(=O)C(Cc2cccc(C(=N)N)c2)NS(=O)(=O)c2ccc3ccccc3c2)CC1 (stereo not given) | 
8 | 630 |  | COc1ccc2ccc(S(=O)(=O)NC(Cc3ccc4ccnc(N)c4c3)C(=O)N3CCC(C)CC3)cc2c1 (stereo not given) | 
6 | 1580 |  | COc1ccc2ccc(S(=O)(=O)NC(Cc3cc4c(N)nccc4o3)C(=O)N3CCC(C)CC3)cc2c1 (stereo not given) | 9
27 | 48000 |  | COc1ccc2ccc(S(=O)(=O)NC(Cc3ccc4c(N)nccc4c3)C(=O)N3CCC(C)CC3)cc2c1 (stereo not given) | 75
4 |  | 36 | COc1ccc2ccc(S(=O)(=O)NC(Cc3cc4c(N)nccc4s3)C(=O)N3CCC(C)CC3)cc2c1 (stereo not given) | 121
13 | 6000 |  | COc1ccc2ccc(S(=O)(=O)NC(Cc3cc4c(N)nccc4s3)C(=O)N3CCN(C)CC3)cc2c1 (stereo not given) | 
18 | 560 |  | COc1ccc2ccc(S(=O)(=O)NC(Cc3cc4c(N)nccc4s3)C(=O)N3CCN(S(C)(=O)=O)CC3)cc2c1 (stereo not given) | 
2 | 1400 |  | COc1ccc2ccc(S(=O)(=O)NC(Cc3cc4c(N)nccc4s3)C(=O)N3CCC(C(C)=O)CC3)cc2c1 (stereo not given) | 23
4 | 5000 |  | COc1cc2ccc(S(=O)(=O)NC(Cc3cc4c(N)nccc4s3)C(=O)N3CCC(C)CC3)cc2cc1OC (stereo not given) | 
205 | 209000 |  | CC1CCN(C(=O)C(Cc2cc3c(N)nccc3s2)NS(=O)(=O)c2ccc3ccccc3c2)CC1 (stereo not given) | 117
